Measured values taken from patent US9856216B2, “Compounds as TNIK, IKKε and TBK1 inhibitors and pharmaceutical composition comprising same” (GREEN CROSS CORPORATION, priority 2015, dated 2018).

Target: T1, TNIK (Homo sapiens, UniProt Q9UKE5)
T1 construct: purchased Promega V4158
Assay: ADP-Glo Kinase Assay, inhibition activity on TNIK
Assay type: biochemical
Conditions: read-out: TNIK
Procedure: The inhibition activities on TNIK, IKKε and TBK1 were measured by a luminometer, TNIK/IKKε/TBK1 Kinase Enzyme System (Promega, Ca# V4158; Invitrogen, PR8031B, Promega, Ca# V3991) and ADP-Glo Kinase Assay using ADP-Glo™ Kinase Analysis Kit (Promega, Ca# V9101) and a kinase reaction buffer [40 mM Tris(pH 7.5), 20 mM MgCl2, 0.1 mg/mL BSA] in accordance with the manufacturer's protocol.

T1 sequence (Q9UKE5 1-367 limits assumed): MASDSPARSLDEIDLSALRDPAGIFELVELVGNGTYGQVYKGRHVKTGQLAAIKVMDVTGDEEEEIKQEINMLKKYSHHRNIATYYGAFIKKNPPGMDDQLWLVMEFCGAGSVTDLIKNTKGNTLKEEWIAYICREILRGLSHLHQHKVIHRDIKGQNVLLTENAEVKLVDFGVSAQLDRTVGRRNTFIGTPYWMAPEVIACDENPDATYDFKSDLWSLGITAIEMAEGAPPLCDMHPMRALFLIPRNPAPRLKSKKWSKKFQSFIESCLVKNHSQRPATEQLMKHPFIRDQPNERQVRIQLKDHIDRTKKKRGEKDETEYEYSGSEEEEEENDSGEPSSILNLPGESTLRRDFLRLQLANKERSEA

Structure (SMILES) | IC50 [nM]
O=C(Nc1ccc(-c2ccccc2)c2c1C(=O)NC2)c1ccc(NCCN2CCOCC2)cc1 [Example 322, 4-((2-Morpholinoethyl)amino)-N-(3-oxo-7-phenylisoindolin-4-yl)benzamide] | 340
COc1ccccc1-c1ccc(NC(=O)c2ccc(N3CCOCC3)cc2)c2c1CNC2=O [Example 323, N-(7-(2-methoxyphenyl)-3-oxoisoindolin-4-yl)-4-morpholino benzamide] | 370
COCCNc1ccc(C(=O)Nc2ccc(-c3ccccc3OC)c3c2C(=O)NC3)cc1 [Example 324, 4-((2-Methoxyethyl)amino)-N-(7-(2-methoxyphenyl)-3-oxoisoindolin-4-yl)benzamide] | 300
COc1ccccc1-c1ccc(NC(=O)c2ccc(N3CCN(C)CC3)cc2)c2c1CNC2=O [Example 325, N-(7-(2-methoxyphenyl)-3-oxoisoindolin-4-yl)-4-(4-methylpiperazin-1-yl)benzamide] | 370
COc1ccccc1-c1ccc(NC(=O)c2ccc(NCCN3CCOCC3)cc2)c2c1CNC2=O [Example 326] | 93
O=C(Nc1ccc(-c2ccccc2)c2c1C(=O)NC2)c1ccc(NCCCN2CCOCC2)cc1 [Example 327, 4-((3-Morpholinopropyl)amino)-N-(3-oxo-7-phenylisoindolin-4-yl)benzamide] | 700
COc1ccccc1-c1ccc(NC(=O)c2ccc(NCCCN3CCOCC3)cc2)c2c1CNC2=O [Example 328] | 400
CN1CCN(CCCNc2ccc(C(=O)Nc3ccc(-c4ccccc4)c4c3C(=O)NC4)cc2)CC1 [Example 329, 4-((3-(4-Methylpiperazin-1-yl)propyl)amino)-N-(3-oxo-7-phenylisoindolin-4-yl)benzamide] | 440
COc1ccccc1-c1ccc(NC(=O)c2ccc(NCCCN3CCN(C)CC3)cc2)c2c1CNC2=O [Example 330, N-(7-(2-methoxyphenyl)-3-oxoisoindolin-4-yl)-4-((3-(4-methylpiperazin-1-yl)propyl)amino)benzamide] | 510
COCCCNc1ccc(C(=O)Nc2ccc(-c3ccccc3)c3c2C(=O)NC3)cc1 [Example 331, 4-((3-Methoxypropyl)amino)-N-(3-oxo-7-phenylisoindolin-4-yl) benzamide] | 790
COCCCNc1ccc(C(=O)Nc2ccc(-c3ccccc3OC)c3c2C(=O)NC3)cc1 [Example 332, N-(7-(2-methoxyphenyl)-3-oxoisoindolin-4-yl)-4-((3-methoxypropyl)amino)benzamide] | 510
O=C(Nc1ccc(-c2ccccc2)c2c1C(=O)NC2)c1ccc(NCc2cccs2)cc1 [Example 333, N-(3-oxo-7-phenylisoindolin-4-yl)-4-((thiophen-2-ylmethyl)amino)benzamide] | 1600
COc1ccccc1-c1ccc(NC(=O)c2ccc(NCc3cccs3)cc2)c2c1CNC2=O [Example 334, N-(7-(2-methoxyphenyl)-3-oxoisoindolin-4-yl)-4-((thiophen-2-ylmethyl)amino)benzamide] | 410
CN(C)CCCNc1ccc(C(=O)Nc2ccc(-c3ccco3)c3c2C(=O)NC3)cc1 [Example 335, 4-((3-(Dimethylamino)propyl)amino)-N-(7-(furan-2-yl)-3-oxoisoindolin-4-yl)benzamide] | 430
COCCCNc1ccc(C(=O)Nc2ccc(-c3ccco3)c3c2C(=O)NC3)cc1 [Example 336, N-(7-(furan-2-yl)-3-oxoisoindolin-4-yl)-4-((3-methoxypropyl)amino)benzamide] | 980
O=C(Nc1ccc(-c2ccco2)c2c1C(=O)NC2)c1ccc(NCCCN2CCOCC2)cc1 [Example 337, N-(7-(furan-2-yl)-3-oxoisoindolin-4-yl)-4-((3-morpholinopropyl)amino)benzamide] | 560
O=C(Nc1ccc(-c2ccco2)c2c1C(=O)NC2)c1ccc(NCCCN2CCCCC2)cc1 [Example 338, N-(7-(furan-2-yl)-3-oxoisoindolin-4-yl)-4-((3-(piperidin-1-yl)propyl)amino)benzamide] | 370
O=C(Nc1ccc(-c2ccco2)c2c1C(=O)NC2)c1ccc(NCCCN2CCCC2)cc1 [Example 339, N-(7-(furan-2-yl)-3-oxoisoindolin-4-yl)-4-((3-(pyrrolidin-1-yl)propyl)amino)benzamide] | 310
NC1CCN(c2ccc(C(=O)Nc3ccc(-c4ccccc4)c4c3C(=O)NC4)cc2)CC1 [Example 340, 4-(4-Aminopiperidin-1-yl)-N-(3-oxo-7-phenylisoindolin-4-yl) benzamide] | 680
CN(C)CCNc1ccc(C(=O)Nc2ccc(-c3cccc4ncoc34)c3c2C(=O)NC3)cc1 [Example 341, N-(7-(benzo[d]oxazol-7-yl)-3-oxoisoindolin-4-yl)-4-((2-(dimethylamino)ethyl)amino)benzamide] | 38
O=C(Nc1ccc(-c2cccc3ncoc23)c2c1C(=O)NC2)c1ccc(NCCN2CCCCC2)cc1 [Example 342, N-(7-(benzo[d]oxazol-7-yl)-3-oxoisoindolin-4-yl)-4-((2-(piperidin-1-yl)ethyl)amino)benzamide] | 43
O=C(Nc1ccc(-c2cccc3ncoc23)c2c1C(=O)NC2)c1ccc(NCCCN2CCCCC2)cc1 [Example 343, N-(7-(benzo[d]oxazol-7-yl)-3-oxoisoindolin-4-yl)-4-((3-(piperidin-1-yl)propyl)amino)benzamide] | 42
O=C(Nc1ccc(-c2cccc3ncoc23)c2c1C(=O)NC2)c1ccc(NCCN2CCCCCC2)cc1 [Example 344, 4-((2-(Azepan-1-yl)ethyl)amino)-N-(7-(benzo[d]oxazol-7-yl)-3-oxoisoindolin-4-yl)benzamide] | 61
O=C(Nc1ccc(-c2ccccc2)c2c1C(=O)NC2)c1ccc(OCCN2CCOCC2)cc1 [Example 345, 4-(2-Morpholinoethoxy)-N-(3-oxo-7-phenylisoindolin-4-yl) benzamide] | 1140
O=C(Nc1cccc2c1C(=O)NC2)c1ccc(NCCN2CCCC2)cc1 [Example 346, N-(3-oxoisoindolin-4-yl)-4-((2-(pyrrolidin-1-yl)ethyl)amino) benzamide] | 6170
COc1cccc(-c2ccc(NC(=O)c3ccc(OCCN4CCOCC4)cc3)c3c2CNC3=O)c1OC [Example 347, N-(7-(2,3-dimethoxyphenyl)-3-oxoisoindolin-4-yl)-4-(2-morpholinoethoxy)benzamide] | 200
Nc1cccc(-c2ccc(NC(=O)c3ccc(NCCN4CCOCC4)cc3)c3c2CNC3=O)c1O [Example 348, N-(7-(3-amino-2-hydroxyphenyl)-3-oxoisoindolin-4-yl)-4-((2-morpholinoethyl)amino)benzamide] | 3180
COc1ccccc1-c1ccc(NC(=O)c2ccc(NCCN3CCCCCC3)cc2)c2c1CNC2=O [Example 349, 4-((2-(Azepan-1-yl)ethyl)amino)-N-(7-(2-methoxyphenyl)-3-oxoisoindolin-4-yl)benzamide] | 240
COc1cccc(-c2ccc(NC(=O)c3ccc(NCCN4CCCCCC4)cc3)c3c2CNC3=O)c1OC [Example 350, 4-((2-(Azepan-1-yl)ethyl)amino)-N-(7-(2,3-dimethoxyphenyl)-3-oxoisoindolin-4-yl)benzamide] | 61
CN(C)CCCNc1ccc(C(=O)Nc2ccc(-c3ccccc3O)c3c2C(=O)NC3)cc1 [Example 351, 4-((3-(Dimethylamino)propyl)amino)-N-(7-(2-hydroxyphenyl)-3-oxoisoindolin-4-yl)benzamide] | 960
